The subject of assay [1] is Human umbilical vein endothelial cells (HUVECs). Put plainly: MTT assay of cell damage in hydrogen peroxide-treated HUVECs (cell regeneration effect). Format: cell-based. To be noted: HUVECs treated with antioxidant, then hydrogen peroxide. As for the experimental part:
(§1) Human umbilical vein endothelial cells (HUVECs) were treated with each of the 7 types of antioxidants A1-A7, and then an oxidant, hydrogen peroxide, was administered to analyze the degree of cell damage by an MTT assay, and then the activity of superoxide dismutase and catalase was measured.
A general note: Tetrazolium dyes change colour on reduction, which living cells bring about.

Assay [2] is described as follows: DPPH assay of free radical-scavenging activity. Format: biochemical. As to conditions: absorbance at 517 nm for 10 minutes. As for the experimental part:
In the present invention, the experiment was carried out with fraxin having a concentration of 0.5 mM, and this concentration is a result of performing an experiment of the free radical-scavenging activity of fraxin using a DPPH assay. A DPPH solution was treated with various concentrations of fraxin (0.02, 0.1 and 0.5 mM), and a change in absorbance was monitored at 517 nm for 10 minutes. The free radical scavenging activity was approximately 10%, 18% or 50% at the fraxin concentration of 0.02, 0.1 or 0.5 mM, respectively, and 0.5 mM was selected for subsequent experiment.

Assay [3] has as its system HUVECs. Put plainly: Production of reactive oxygen species (ROS), DCF fluorescence, in H2O2-treated HUVECs. Format: cell-based, Human. As to conditions: for reduction of the H2O2-induced increase in ROS level: H2O2-treated HUVECs, DCF fluorescence, H2O2 increases ROS by 55%; for ROS scavenging effect: HUVECs treated with antioxidant, then hydrogen peroxide.
For assay [4], the system named is Human umbilical vein endothelial cells (HUVECs). Put plainly: Antioxidant activity screening. To be noted: screening of components with known antioxidant activity. The assay is classed as cell-based. As for the experimental part: Compounds used in the antioxidant activity screening of the present invention are A1 to A7 below:
as §1

Assay [5] relates to Superoxide dismutase (SOD). Put plainly: Superoxide dismutase (SOD) assay in H2O2-treated HUVECs. Format: cell-based, Human. As to conditions: treated before H2O2 treatment. As for the experimental part: as §1
Assay [6] relates to HUVECs. Put plainly: Lipid peroxidation (LPO) assay, MDA amount, in H2O2-exposed cells. Format: cell-based, Human. To be noted: cells exposed to H2O2.

Take `COc1cc2ccc(=O)oc2c(O[C@@H]2O[C@H](CO)[C@@H](O)[C@H](O)[C@H]2O)c1O` [A3, fraxin]: in assay [1], the cell regeneration effect result is reported as “high”. The “free radical scavenging activity” value in assay [2] (0.02 mM) is “approximately 10%”; in assay [2] (0.1 mM) it was around 18%; in assay [2] (0.5 mM) it was around 50%. Moreover, the “reduction of the H2O2-induced increase in ROS level” value in assay [3] amounted to 39%. The ROS scavenging effect result in assay [3] was “poor”. In addition, the antioxidant activity entry in assay [4] was “highest activity”. Moreover, the SOD activity entry in assay [5] is “increase”. Further, the “reduction of the H2O2-induced increase in MDA amount (LPO)” value in assay [6] is reported as “greatly reduced”.
Regarding `C[C@@H]1O[C@@H](O[C@@H]2[C@@H](O)[C@H](OCCc3ccc(O)c(O)c3)O[C@H](CO)[C@H]2OC(=O)/C=C/c2ccc(O)c(O)c2)[C@H](O)[C@H](O)[C@H]1O` [A6, Acteoside], the cell regeneration effect result in assay [1] is listed as “did not show”. Moreover, the ROS scavenging effect result in assay [3] is on record as “did not show”.
In the case of `COC(=O)c1cc(O)c(O)c(O)c1` [A4, methyl gallate], in assay [1], the cell regeneration effect entry is “high”. For the same molecule, in assay [3], the “reduction of the H2O2-induced increase in ROS level” value is 24% and the ROS scavenging effect entry is on record as “high”. Moreover, the “reduction of the H2O2-induced increase in MDA amount (LPO)” value in assay [6] is “greatly reduced”.
Turning to `O=C(CC(O)(CC(=O)OCc1ccc(O[C@@H]2O[C@H](CO)[C@@H](O)[C@H](O)[C@H]2O)cc1)C(=O)O)OCc1ccc(O[C@@H]2O[C@H](CO)[C@@H](O)[C@H](O)[C@H]2O)cc1` [A7, 1,3-bis[4-(3-D-glucopyranosyl)benzyl]citrate], in assay [1], the cell regeneration effect entry is recorded as “did not show”. Moreover, in assay [3], the ROS scavenging effect result is reported as “did not show”.
For the molecule `O=C(O)c1cc(O)c(O)c(O)c1` [gallic acid], the antioxidant activity result in assay [4] is reported as “highest activity”.

The values are drawn from patent US11382935B2, “Composition for improving cognitive ability and preventing or treating dementia and attention deficit hyperactivity disorder, comprising Galla rhois extract and fraxin as active ingredients” (priority 2018, dated 2022).
